Like-named read-outs stand apart in the source and are kept apart here.
Assay: Study TMX-99-001: febuxostat plasma pharmacokinetics
Type: in vivo, human
Set-up: AUC24/Dose: unit not given here
Settings: mean; for MRT inf / AUC / partial AUC from 0 to 4 hours: human, plasma, oral; for partial AUC from 0 to 4 hours: read-out: AUC0-4

Question: Which Tmax (IR 30 mg BID) does the source give for `Cc1nc(-c2ccc(OCC(C)C)c(C#N)c2)sc1C(=O)O` [Febuxostat, 2-[3-cyano-4-(2-methylpropoxy)phenyl]-4-methylthiazole-5-carboxylic acid] here?
Answer: Its Tmax is 0.70 h.

Question: What about the Tmin (IR 30 mg BID) of the same compound?
Answer: Its Tmin is 24.00 h.

Question: What about the AUC24/Dose (IR 30 mg BID, AM + PM dose (60 mg)) of the same compound?
Answer: Its AUC24/Dose is 103.73.

Question: What about the Cmax (IR 30 mg BID, Cmax following AM dose) of the same compound?
Answer: Its Cmax is 1488.00 ng/mL.

Question: What about the Cmax/dose (IR 30 mg BID, Cmax following AM dose/AM dose (30 mg)) of the same compound?
Answer: The Cmax/dose was 49.60 ng/mL/mg.

Question: What about the Cmin (IR 30 mg BID, terminal phase of PM dose) of the same compound?
Answer: The Cmin was 59.58 ng/mL.

Question: And the AUC24/Dose (IR 30 mg single dose)?
Answer: Its AUC24/Dose is 84.16.

Question: What about the Cmax (IR 30 mg single dose) of the same compound?
Answer: Its Cmax is 1283.54 ng/mL.

Question: And the Cmax/dose (IR 30 mg single dose)?
Answer: The Cmax/dose was 42.78 ng/mL/mg.

Question: What about the Tmax (IR 30 mg single dose) of the same compound?
Answer: The Tmax was 0.89 h.

Question: What about the Tmin (IR 30 mg single dose) of the same compound?
Answer: Its Tmin is 16.89 h.

Question: What about the Cmin (IR 30 mg single dose, terminal phase at or before 24 hours) of the same compound?
Answer: The Cmin was 17.50 ng/mL.

Question: And the AUC4-24 (IR 40 mg single dose)?
Answer: The AUC4-24 was 941.11 ng·h/mL.

Question: And the AUC24 (IR 40 mg single dose)?
Answer: The AUC24 was 4295.13 ng·h/mL.

Question: And the AUC24/Dose (IR 40 mg single dose)?
Answer: Its AUC24/Dose is 107.38.

Question: What about the Cmax (IR 40 mg single dose) of the same compound?
Answer: The Cmax was 1822.11 ng/mL.

Question: What about the Cmax/dose (IR 40 mg single dose) of the same compound?
Answer: The Cmax/dose was 45.55 ng/mL/mg.

Question: And the Tmax (IR 40 mg single dose)?
Answer: The Tmax was 1.19 h.

Question: What about the Tmin (IR 40 mg single dose) of the same compound?
Answer: Its Tmin is 21.00 h.

Question: And the Cmin (IR 40 mg single dose, terminal phase at or before 24 hours)?
Answer: Its Cmin is 15.13 ng/mL.

Question: What about the AUC0-4 (IR 50 mg single dose) of the same compound?
Answer: Its AUC0-4 is 3116.06 ng·h/mL.

Question: And the AUC24 (IR 50 mg single dose)?
Answer: The AUC24 was 4374.36 ng·h/mL.

Question: And the AUC24/Dose (IR 50 mg single dose)?
Answer: The AUC24/Dose was 87.49.

Question: What about the Cmax (IR 50 mg single dose) of the same compound?
Answer: The Cmax was 1791.71 ng/mL.

Question: What about the Cmax/dose (IR 50 mg single dose) of the same compound?
Answer: Its Cmax/dose is 35.83 ng/mL/mg.

Question: And the Tmax (IR 50 mg single dose)?
Answer: The Tmax was 1.14 h.

Question: And the Tmin (IR 50 mg single dose)?
Answer: The Tmin was 22.00 h.

Question: What about the Cmin (IR 50 mg single dose, terminal phase at or before 24 hours) of the same compound?
Answer: Its Cmin is 15.98 ng/mL.

Question: What about the AUC24 (IR 70 mg single dose) of the same compound?
Answer: The AUC24 was 6948.21 ng·h/mL.

Question: And the AUC24/Dose (IR 70 mg single dose)?
Answer: Its AUC24/Dose is 99.26.

Question: What about the Cmax (IR 70 mg single dose) of the same compound?
Answer: The Cmax was 2689.91 ng/mL.

Question: What about the Cmax/dose (IR 70 mg single dose) of the same compound?
Answer: The Cmax/dose was 38.43 ng/mL/mg.

Question: And the Tmax (IR 70 mg single dose)?
Answer: The Tmax was 1.10 h.

Question: And the Tmin (IR 70 mg single dose)?
Answer: Its Tmin is 23.20 h.

Question: What about the Cmin (IR 70 mg single dose, terminal phase at or before 24 hours) of the same compound?
Answer: The Cmin was 23.81 ng/mL.

Question: What about the AUC0-4 (IR 90 mg single dose) of the same compound?
Answer: Its AUC0-4 is 6893.00 ng·h/mL.

Question: What about the AUC24/Dose (IR 90 mg single dose) of the same compound?
Answer: The AUC24/Dose was 104.36.

Question: What about the Cmax (IR 90 mg single dose) of the same compound?
Answer: Its Cmax is 4061.63 ng/mL.

Question: And the Cmax/dose (IR 90 mg single dose)?
Answer: Its Cmax/dose is 45.13 ng/mL/mg.

Question: And the Tmin (IR 90 mg single dose)?
Answer: Its Tmin is 24.00 h.

Question: And the Cmin (IR 90 mg single dose, terminal phase at or before 24 hours)?
Answer: The Cmin was 27.53 ng/mL.

Question: And the AUC24 (IR 120 mg single dose)?
Answer: The AUC24 was 11959.93 ng·h/mL.

Question: What about the AUC24/Dose (IR 120 mg single dose) of the same compound?
Answer: The AUC24/Dose was 99.67.

Question: What about the Cmax (IR 120 mg single dose) of the same compound?
Answer: Its Cmax is 5307.58 ng/mL.

Question: What about the Cmax/dose (IR 120 mg single dose) of the same compound?
Answer: Its Cmax/dose is 44.23 ng/mL/mg.

Question: And the Tmax (IR 120 mg single dose)?
Answer: Its Tmax is 1.11 h.

Question: And the Tmin (IR 120 mg single dose)?
Answer: The Tmin was 24.00 h.

Question: And the Cmin (IR 120 mg single dose, terminal phase at or before 24 hours)?
Answer: The Cmin was 41.49 ng/mL.

Question: And the AUC24 (IR 160 mg single dose)?
Answer: The AUC24 was 22282.12 ng·h/mL.

Question: What about the AUC24/Dose (IR 160 mg single dose) of the same compound?
Answer: Its AUC24/Dose is 139.26.

Question: And the Cmax (IR 160 mg single dose)?
Answer: Its Cmax is 8771.07 ng/mL.

Question: And the Cmax/dose (IR 160 mg single dose)?
Answer: The Cmax/dose was 54.82 ng/mL/mg.

Question: What about the Tmax (IR 160 mg single dose) of the same compound?
Answer: Its Tmax is 0.80 h.

Question: And the Tmin (IR 160 mg single dose)?
Answer: Its Tmin is 22.80 h.

Question: What about the Cmin (IR 160 mg single dose, terminal phase at or before 24 hours) of the same compound?
Answer: Its Cmin is 79.88 ng/mL.

Question: What about the AUC24 (IR 180 mg single dose) of the same compound?
Answer: Its AUC24 is 23954.54 ng·h/mL.

Question: What about the AUC24/Dose (IR 180 mg single dose) of the same compound?
Answer: The AUC24/Dose was 133.08.

Question: And the Cmax (IR 180 mg single dose)?
Answer: The Cmax was 8048.76 ng/mL.

Question: What about the Cmax/dose (IR 180 mg single dose) of the same compound?
Answer: The Cmax/dose was 44.72 ng/mL/mg.

Question: And the Tmin (IR 180 mg single dose)?
Answer: Its Tmin is 24.00 h.

Question: What about the Cmin (IR 180 mg single dose, terminal phase at or before 24 hours) of the same compound?
Answer: The Cmin was 75.73 ng/mL.

Question: What about the AUC24 (IR 240 mg single dose) of the same compound?
Answer: Its AUC24 is 34976.26 ng·h/mL.

Question: And the AUC24/Dose (IR 240 mg single dose)?
Answer: The AUC24/Dose was 145.73.

Question: And the Cmax (IR 240 mg single dose)?
Answer: The Cmax was 11263.03 ng/mL.

Question: And the Cmax/dose (IR 240 mg single dose)?
Answer: The Cmax/dose was 46.93 ng/mL/mg.

Question: What about the Tmax (IR 240 mg single dose) of the same compound?
Answer: The Tmax was 0.94 h.

Question: What about the Tmin (IR 240 mg single dose) of the same compound?
Answer: The Tmin was 24.00 h.

Question: And the Cmin (IR 240 mg single dose, terminal phase at or before 24 hours)?
Answer: The Cmin was 71.30 ng/mL.

Question: And the MRT inf (30 mg, IR 30 mg BID)?
Answer: Its MRT inf is 18.6 h.

Question: What about the AUC (30 mg, IR 30 mg BID, following AM and PM dose, read-out: AUC4-24) of the same compound?
Answer: The AUC was 3980 ng·h/mL.

Question: And the AUC (30 mg, IR 30 mg BID, following AM and PM dose, read-out: AUC24)?
Answer: Its AUC is 6220 ng·h/mL.

Question: What about the partial AUC from 0 to 4 hours (30 mg, IR 30 mg BID, following AM dose) of the same compound?
Answer: Its partial AUC from 0 to 4 hours is 2240 ng·h/mL.

Question: What about the MRT inf (30 mg, IR 30 mg single dose) of the same compound?
Answer: The MRT inf was 4.99 h.

Question: And the partial AUC from 0 to 4 hours (30 mg, IR 30 mg single dose)?
Answer: Its partial AUC from 0 to 4 hours is 1900 ng·h/mL.

Question: What about the AUC (30 mg, IR 30 mg single dose, read-out: AUC4-24) of the same compound?
Answer: Its AUC is 629 ng·h/mL.

Question: And the AUC (30 mg, IR 30 mg single dose, read-out: AUC24)?
Answer: The AUC was 2520 ng·h/mL.

Question: What about the MRT inf (40 mg, IR 40 mg single dose) of the same compound?
Answer: Its MRT inf is 4.54 h.

Question: And the partial AUC from 0 to 4 hours (40 mg, IR 40 mg single dose)?
Answer: The partial AUC from 0 to 4 hours was 3350 ng·h/mL.

Question: And the MRT inf (50 mg, IR 50 mg single dose)?
Answer: Its MRT inf is 5 h.

Question: And the AUC (50 mg, IR 50 mg single dose, read-out: AUC4-24)?
Answer: Its AUC is 1260 ng·h/mL.

Question: And the MRT inf (70 mg, IR 70 mg single dose)?
Answer: The MRT inf was 5 h.

Question: What about the partial AUC from 0 to 4 hours (70 mg, IR 70 mg single dose) of the same compound?
Answer: Its partial AUC from 0 to 4 hours is 5280 ng·h/mL.

Question: What about the AUC (70 mg, IR 70 mg single dose, read-out: AUC4-24) of the same compound?
Answer: Its AUC is 1670 ng·h/mL.

Question: And the MRT inf (90 mg, IR 90 mg single dose)?
Answer: The MRT inf was 5.81 h.

Question: What about the AUC (90 mg, IR 90 mg single dose, read-out: AUC4-24) of the same compound?
Answer: Its AUC is 2500 ng·h/mL.

Question: And the AUC (90 mg, IR 90 mg single dose, read-out: AUC24)?
Answer: The AUC was 9390 ng·h/mL.

Question: And the MRT inf (120 mg, IR 120 mg single dose)?
Answer: The MRT inf was 5.43 h.

Question: And the partial AUC from 0 to 4 hours (120 mg, IR 120 mg single dose)?
Answer: Its partial AUC from 0 to 4 hours is 8590 ng·h/mL.

Question: And the AUC (120 mg, IR 120 mg single dose, read-out: AUC4-24)?
Answer: The AUC was 3370 ng·h/mL.

Question: And the MRT inf (160 mg, IR 160 mg single dose)?
Answer: The MRT inf was 4.65 h.

Question: And the partial AUC from 0 to 4 hours (160 mg, IR 160 mg single dose)?
Answer: The partial AUC from 0 to 4 hours was 16400 ng·h/mL.

Question: What about the AUC (160 mg, IR 160 mg single dose, read-out: AUC4-24) of the same compound?
Answer: The AUC was 5840 ng·h/mL.

Question: And the MRT inf (180 mg, IR 180 mg single dose)?
Answer: Its MRT inf is 5.53 h.

Question: What about the partial AUC from 0 to 4 hours (180 mg, IR 180 mg single dose) of the same compound?
Answer: Its partial AUC from 0 to 4 hours is 16800 ng·h/mL.

Question: What about the AUC (180 mg, IR 180 mg single dose, read-out: AUC4-24) of the same compound?
Answer: The AUC was 7150 ng·h/mL.

Question: And the MRT inf (240 mg, IR 240 mg single dose)?
Answer: The MRT inf was 4.32 h.

Question: And the partial AUC from 0 to 4 hours (240 mg, IR 240 mg single dose)?
Answer: The partial AUC from 0 to 4 hours was 25100 ng·h/mL.

Question: And the AUC (240 mg, IR 240 mg single dose, read-out: AUC4-24)?
Answer: The AUC was 9900 ng·h/mL.
